# Test results taken from US20240041840A1 (Areteia Therapeutics, Inc., priority 2020, published 2024).
# Read-outs that look alike come from different tables or passages of the source.
# Test system: subjects with eosinophilic asthma
# Method: Pulmonary function is measured by performing a spirometry, which measures forced expiratory volume in is (FEV1), the volume of air moved in the first second of exhalation, this is a well-accepted measure of asthma. Forced vital capacity (FVC) is the total volume of air exhaled during the entire forced expiratory volume (FEV) test. The FEV1/FVC ratio is a calculated measure that may provide a more specific measure of bronchoconstriction, independent of processes such as air trapping. Pulmonary function testing can be tested pre-bronchodilator (after waiting a sufficient time so that all bronchodilator medications have cleared) or post-bronchodilator, typically 15-30 minutes after inhaling a short-acting bronchodilator, such as albuterol. Bronchodilator reversibility (BDR) is calculated and assessed by analyzing FEV1 pre- and post-bronchodilator, and calculating the change both as absolute (ml) and percentage change.
# Evaluation of Efficacy: Blood eosinophil count, changes in pulmonary function (FEV1), Asthma Control Questionnaire (ACQ-6), Asthma Control Questionnaire (ACQ-7), Asthma Quality of Life Questionnaire (AQLQ), exhaled nitric oxide, pharyngeal and nasal eosinophil peroxidase were collected periodically during the study.
# To control the alpha level for testing 3 dose groups versus placebo for the primary endpoint and for testing FEV1, a closed hierarchical testing procedure was used in the following order: 1. First, the 300 mg/day dose group was tested versus placebo for change in blood absolute eosinophil count, and if this reached the <0.05 level then, 2. the 150 mg/day dose group was tested versus placebo at the 0.05 level for change in blood absolute eosinophil count, and if this reached the <0.05 level then, 3. the pooled 150 and 300 mg/day dose groups were tested versus placebo at the 0.05 level for change in FEV1 at Week 12, then 4. the 75 mg/day dose group was tested versus placebo at the 0.05 level for change in blood absolute eosinophil count, and if this reached the <0.05 level.
# [1] = 75 mg/day, Table 6D, timepoint printed as Analysis Baseline*
# [2] = 75 mg/day, Table 6D, timepoint printed as Week 4
# [3] = 150 mg/day, Table 6D, timepoint printed as Analysis Baseline*
# [4] = 150 mg/day, Table 6D, timepoint printed as Week 4
structure (smiles),measurement,setting,value
"CCCN[C@@H]1CCc2nc(N)sc2C1 [dexpramipexole, (6R)-2-amino-4,5,6,7-tetrahydro-6-(propylamino) benzothiazole]","Pre-Bronchodilator FEV1 % change, mean",[1],12.0%
same,"Pre-Bronchodilator FEV1 % change, median",[1],10.7%
same,"Pre-Bronchodilator FEV1 change, mean",[1],0.237 L
same,"Pre-Bronchodilator FEV1 change, median",[1],0.170 L
same,"Pre-Bronchodilator FEV1 observed, mean",[1],228 L
same,"Pre-Bronchodilator FEV1 observed, median",[1],2.24 L
same,"Pre-Bronchodilator FEV1 % change, mean",[2],9.27%
same,"Pre-Bronchodilator FEV1 % change, median",[2],5.48%
same,"Pre-Bronchodilator FEV1 change, mean",[2],0.207 L
same,"Pre-Bronchodilator FEV1 change, median",[2],0.115 L
same,"Pre-Bronchodilator FEV1 observed, mean",[2],2.24 L
same,"Pre-Bronchodilator FEV1 observed, median",[2],2.08 L
same,FEV1 change from Baseline LSM,"75 mg/day, Week 4",0.150 L
same,FEV1 difference versus Placebo LSM,"75 mg/day, Week 4",0.165 L
same,"Pre-Bronchodilator FEV1 % change, median","75 mg/day, Week 4",4.85%
same,"Pre-Bronchodilator FEV1, % change from Baseline, mean","75 mg/day, Week 4",6.25%
same,"Pre-Bronchodilator FEV1 change, mean","75 mg/day, Week 4",0.130 L
same,"Pre-Bronchodilator FEV1 change, median","75 mg/day, Week 4",0.0750 L
same,"Pre-Bronchodilator FEV1 observed, mean","75 mg/day, Week 4",2.10 L
same,"Pre-Bronchodilator FEV1 observed, median","75 mg/day, Week 4",2.10 L
same,"Pre-Bronchodilator Percent Predicted FEV1 % change, mean","75 mg/day, Week 4",62.4%
same,"Pre-Bronchodilator Percent Predicted FEV1 % change, median","75 mg/day, Week 4",4.85%
same,"Pre-Bronchodilator Percent Predicted FEV1 change, mean","75 mg/day, Week 4",3.59%
same,"Pre-Bronchodilator Percent Predicted FEV1 change, median","75 mg/day, Week 4",2.69%
same,"Pre-Bronchodilator Percent Predicted FEV1 observed, mean","75 mg/day, Week 4",62.2%
same,"Pre-Bronchodilator Percent Predicted FEV1 observed, median","75 mg/day, Week 4",64.4%
same,FEV1 change from Baseline LSM,"75 mg/day, Week 8",0.204 L
same,FEV1 difference versus Placebo LSM,"75 mg/day, Week 8",0.210 L
same,"Pre-Bronchodilator FEV1, % change from Baseline, mean","75 mg/day, Week 8",12.0%
same,FEV1 change from Baseline LSM,"75 mg/day, Week 12",0.168 L
same,FEV1 difference versus Placebo LSM,"75 mg/day, Week 12",0.121 L
same,"Pre-Bronchodilator FEV1, % change from Baseline, mean","75 mg/day, Week 12",9.27%
same,FEV1 change from Baseline LSM,"75 mg/day, Week 16 or Week 18",0.295 L
same,FEV1 difference versus Placebo LSM,"75 mg/day, Week 16 or Week 18",0.327 L
same,"Pre-Bronchodilator FEV1, % change from Baseline, mean","75 mg/day, Week 16 or Week 18",17.6%
same,"ΔFEV1 vs Placebo LSM (SEM), pooled data","75 mg/day, Weeks 4, 8, 12, & 16/18 pooled",206 mL
same,"Pre-Bronchodilator FEV1 % change, mean",[3],7.57%
same,"Pre-Bronchodilator FEV1 % change, median",[3],3.88%
same,"Pre-Bronchodilator FEV1 change, mean",[3],0.130 L
same,"Pre-Bronchodilator FEV1 change, median",[3],0.0900 L
same,"Pre-Bronchodilator FEV1 observed, mean",[3],2.21 L
same,"Pre-Bronchodilator FEV1 observed, median",[3],2.22 L
same,"Pre-Bronchodilator FEV1 % change, mean",[4],3.14%
same,"Pre-Bronchodilator FEV1 % change, median",[4],−1.72%
same,"Pre-Bronchodilator FEV1 change, mean",[4],0.0414 L
same,"Pre-Bronchodilator FEV1 change, median",[4],-0.0400 L
same,"Pre-Bronchodilator FEV1 observed, mean",[4],2.12 L
same,"Pre-Bronchodilator FEV1 observed, median",[4],2.11 L
same,FEV1 change from Baseline LSM,"150 mg/day, Week 4",0.151 L
same,FEV1 difference versus Placebo LSM,"150 mg/day, Week 4",0.166 L
same,"Pre-Bronchodilator FEV1 % change, median","150 mg/day, Week 4",4.54%
same,"Pre-Bronchodilator FEV1, % change from Baseline, mean","150 mg/day, Week 4",7.31%
same,"Pre-Bronchodilator FEV1 change, mean","150 mg/day, Week 4",0.123 L
same,"Pre-Bronchodilator FEV1 change, median","150 mg/day, Week 4",0.0800 L
same,"Pre-Bronchodilator FEV1 observed, mean","150 mg/day, Week 4",2.15 L
same,"Pre-Bronchodilator FEV1 observed, median","150 mg/day, Week 4",2.05 L
same,"Pre-Bronchodilator Percent Predicted FEV1 % change, mean","150 mg/day, Week 4",7.31%
same,"Pre-Bronchodilator Percent Predicted FEV1 % change, median","150 mg/day, Week 4",4.54%
same,"Pre-Bronchodilator Percent Predicted FEV1 change, mean","150 mg/day, Week 4",3.95%
same,"Pre-Bronchodilator Percent Predicted FEV1 change, median","150 mg/day, Week 4",2.85%
same,"Pre-Bronchodilator Percent Predicted FEV1 observed, mean","150 mg/day, Week 4",67.4%
same,"Pre-Bronchodilator Percent Predicted FEV1 observed, median","150 mg/day, Week 4",69.2%
same,FEV1 change from Baseline LSM,"150 mg/day, Week 8",0.166 L
same,FEV1 difference versus Placebo LSM,"150 mg/day, Week 8",0.173 L
same,"Pre-Bronchodilator FEV1, % change from Baseline, mean","150 mg/day, Week 8",7.57%
same,FEV1 change from Baseline LSM,"150 mg/day, Week 12",0.0601 L
same,"Pre-Bronchodilator FEV1, % change from Baseline, mean","150 mg/day, Week 12",3.14%
